Experimental data reported in patent US7534809B2, “Phospho-indoles as HIV inhibitors” (priority 2004, dated 2009).
Read-outs that look alike come from different tables or passages of the source.

What was measured:
HIV BH-10 WT = assay: Cell-based assay using BH-10 cells, wild type
HIV mutant strain Y181C = assay: Cell-based assay using BH-10 cells, Y181C mutant
Method: (§1) In a typical embodiment, the NNRTIs display an EC50 in a mutant HIV strain of less than approximately 5, 2.5, 1 or 0.1 μM concentration. The degree of cross-resistance against a drug resistant strain of HIV is measured by assessing the EC50 of the desired oxo-pyrimidine compound in the target mutated, i.e., drug resistant, virus.
(§2) The degree of cross-resistance against a drug resistant strain of HIV can easily be measured by assessing the EC50 of the desired indole in the target mutated i.e., drug resistant, virus.

[1] = system: HIV mutant strain K103N/Y181C; assay: Cell-based assay using BH-10 cells, K103N/Y181C mutant
Method: as §1, §2

[2] = Human immunodeficiency virus 1, read-out: EC50 WT///B, BH-10 cells, wild type
[3] = Human immunodeficiency virus 1, read-out: EC50 Y181C, BH-10 cells, Y181C mutant
[4] = Human immunodeficiency virus 1, read-out: EC50 K103N/Y181C, BH-10 cells, K103N/Y181C mutant
[5] = BH-10 cells, wild type, read-out: EC50 WT///B
[6] = BH-10 cells, Y181C mutant, read-out: EC50 Y181C
[7] = BH-10 cells, K103N/Y181C mutant, read-out: EC50 K103N/Y181C

SMILES	EC50 (HIV BH-10 WT; [2])	EC50 (HIV mutant strain Y181C; [3])	EC50 [1, 4]	EC50 (HIV BH-10 WT; [5])	EC50 (HIV mutant strain Y181C; [6])	EC50 [1, 7]
CCc1ccccc1P(=O)(OC)c1c(C(N)=O)[nH]c2ccc(Cl)cc12 (stereo not drawn) [Compound 7an]	2.9 nM	50.5 nM	1.3 nM	–	–	–
COP(=O)(c1cc(C)cc(C)c1)c1c(C(=O)NCc2cccc[n+]2[O-])[nH]c2ccc(Cl)cc12 (stereo not drawn) [Compound 22p]	1.9 nM	51.3 nM	17.9 nM	–	–	–
COP(=O)(c1cc(Cl)cc(Cl)c1)c1c(C(N)=O)[nH]c2ccc(Cl)cc12 (stereo not drawn) [Compound 7b]	1.2 nM	5.3 nM	16.8 nM	–	–	–
COP(=O)(c1cc(C)cc(C)c1)c1c(C(=O)NCc2cc[n+]([O-])cc2)[nH]c2ccc(Cl)cc12 (stereo not drawn) [Compound 22n]	2 nM	8.8 nM	4.5 nM	–	–	–
COP(=O)(c1cc(C)cc(C)c1)c1c(C(=O)NCc2c(F)cccc2F)[nH]c2ccc(Cl)cc12 (stereo not drawn) [Compound 18aah]	–	–	–	7 nM	22.8 nM	16.9 nM
COP(=O)(c1cc(C)cc(C#N)c1)c1c(C(=O)NCc2cc[n+]([O-])cc2)[nH]c2ccc(Cl)cc12 (stereo not drawn) [Compound 22ak]	7 nM	6.7 nM	11 nM	–	–	–
COP(=O)(c1cc(C)cc(C)c1)c1c(C(=O)NCN2CCOCC2)[nH]c2ccc(Cl)cc12 (stereo not drawn) [Compound 18ay]	3.5 nM	19.8 nM	9.3 nM	–	–	–
COP(=O)(c1cc(C)cc(C#N)c1)c1c(C(=O)NCc2ccncc2)[nH]c2ccc(Cl)cc12 (stereo not drawn) [Compound 18aaf]	1.8 nM	3.9 nM	1.1 nM	–	–	–
COP(=O)(c1cccc(CO)c1)c1c(C(N)=O)[nH]c2ccc(Cl)cc12 (stereo not drawn) [Compound 7aq]	2.5 nM	83.1 nM	126 nM	–	–	–
COP(=O)(c1cccc(/C=C/C#N)c1)c1c(C(N)=O)[nH]c2ccc(Cl)cc12 (stereo not drawn) [Compound 33a]	3.2 nM	2 nM	3.4 nM	–	–	–
COP(=O)(c1cc(C)cc(C)c1)c1c(C(=O)NCc2cnc[n+]([O-])c2)[nH]c2ccc(Cl)cc12 (stereo not drawn) [Compound 22g]	2.1 nM	10.7 nM	3 nM	–	–	–
COP(=O)(c1cc(F)cc(F)c1)c1c(C(=O)NCCC#N)[nH]c2ccc(Cl)cc12 (stereo not drawn) [Compound 59b]	3.5 nM	69.3 nM	21.5 nM	–	–	–
CCOP(=O)(c1cccc2ccccc12)c1c(C(N)=O)[nH]c2ccc(Cl)cc12 (stereo not drawn) [Compound 6t]	32.5 nM	> 1250 nM	> 1250 nM	–	–	–
COP(=O)(c1cc(C)cc(C)c1)c1c(C(=O)NCc2cncn2C)[nH]c2ccc(Cl)cc12 (stereo not drawn) [Compound 18aaa]	3.2 nM	6.4 nM	3.3 nM	–	–	–
COP(=O)(c1ccccc1)c1c(C(=O)NCc2ccccc2F)[nH]c2ccc(Cl)cc12 (stereo not drawn) [Compound 18aab]	3.8 nM	33.5 nM	10.2 nM	–	–	–
CCOP(=O)(c1ccccc1Cl)c1c(C(N)=O)[nH]c2ccc(Cl)cc12 (stereo not drawn) [Compound 6ai]	1.2 nM	146 nM	17.3 nM	–	–	–
COP(=O)(c1cc(F)cc(Br)c1)c1c(C(N)=O)[nH]c2ccc(Cl)cc12 (stereo not drawn) [Compound 7j]	1.8 nM	3 nM	4.1 nM	–	–	–
COP(=O)(c1cc(F)cc(C(F)(F)F)c1)c1c(C(N)=O)[nH]c2ccc(Cl)cc12 (stereo not drawn) [Compound 7q]	1.1 nM	16.6 nM	2.9 nM	–	–	–
CCOP(=O)(c1cccc(F)c1)c1c(C(N)=O)[nH]c2ccc(Cl)cc12 (stereo not drawn) [Compound 6ae]	–	–	–	0.5 nM	61.6 nM	11 nM
COP(=O)(c1cc(C)cc(C)c1)c1c(C(=O)NCc2ccccn2)[nH]c2ccc(Cl)cc12 (stereo not drawn) [Compound 18aam]	17.3 nM	6.8 nM	22.5 nM	–	–	–
COP(=O)(c1cccc(C2CC2)c1)c1c(C(N)=O)[nH]c2ccc(Cl)cc12 (stereo not drawn) [Compound 7aa]	2.2 nM	7 nM	3.7 nM	–	–	–
COc1ccccc1P(=O)(OC)c1c(C(N)=O)[nH]c2ccc(Cl)cc12 (stereo not drawn) [Compound 7n]	–	–	–	1.7 nM	66 nM	1.5 nM
COP(=S)(c1ccccc1)c1c(C(N)=O)[nH]c2ccc(Cl)cc12 (stereo not drawn) [Compound 25b]	0.4 nM	41.4 nM	89.9 nM	–	–	–
COP(=O)(c1cc(C)cc(C)c1)c1c(C(=O)NCc2ccc(Br)cc2)[nH]c2ccc(Cl)cc12 (stereo not drawn) [Compound 18k]	39.3 nM	102 nM	50.4 nM	–	–	–
COc1cccc(P(=O)(OC)c2c(C(N)=O)[nH]c3ccc(Cl)cc23)c1 (stereo not drawn) [Compound 7l]	0.6 nM	38.5 nM	21.8 nM	–	–	–
COP(=O)(c1cc(F)cc(F)c1)c1c(C(=O)NCc2ccncc2)[nH]c2ccc(Cl)cc12 (stereo not drawn) [Compound 18e]	3.5 nM	14.8 nM	12 nM	–	–	–
